Assay results: patent US11642336B2, “5-HT2A agonists for use in treatment of depression” (priority 2019, dated 2023)
Structures can show the parent of a compound that is named as a salt. Where two headings read alike, the source gives them in different places. Marks after values point to notes of the source that are not given here.

Key:
Assay type in all cases: cell-based
5-HT2C [1] = biological target: T1, 5-HT2C (Homo sapiens (Human), UniProt P28335); experiment: Ca2+/Fluo-4 assay, stable h5-HT2C-HEK293 cell line; details: for 5-HT2C agonist activity (n.a./w.a.): tested up to 50 μM; for 5-HT2C Rmax ± S.E.M: % of the Rmax of 5-HT;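 as to all read-outs here: Agonist-induced intracellular Ca2+ rise read by Fluo-4 fluorescence in HEK293 cells stably expressing the human 5-HT2C receptor, each compound run in duplicate on three or more occasions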
Protocol: The functional properties of the compounds were characterised at stable HEK293 cell lines stably expressing the human 5-HT2A receptor or human 5-HT2C receptor in the Ca^2+/Fluo-4 assay essentially as previously described.^10 Briefly, the cells were split into poly-D-lysine-coated black 96-well plates with clear bottoms (6×10^4 cells/well). The following day the culture medium was aspirated and the cells were incubated in 50 μl assay buffer [Hanks Buffered Saline Solution containing 20 mM HEPES, 1 mM CaCl2, 1 mM MgCl2, 2.5 mM probenecid, pH 7.4] supplemented with 6 mM Fluo-4/AM at 37° C. for 1 hour. Next, the buffer was aspirated, the cells were washed once with 100 μl assay buffer, and then 100 μl assay buffer was added to the cells (in the antagonist experiments the compound was added at this point). […] The compounds were characterized in duplicate at least three times at each cell line.

human 5-HT2A [2] = biological target: T2, human 5-HT2A (Homo sapiens (Human), UniProt P28223); experiment: cell-based; details: for 5-HT2A Rmax ± S.E.M: % of the Rmax of 5-HT; for Selectivity EC50 5-HT2C/EC50 5-HT2A: Ca2+/Fluo-4 assay, bounds are conservative estimates
human 5-HT2A [3] = biological target: T2, human 5-HT2A; experiment: cell-based; details: IP assay; for 5-HT2A Rmax: % of Rmax of 5-HT; for EC50: duplicate determinations
5-HT2B = 5-HT2B (Homo sapiens (Human), UniProt P41595); experiment: IP assay (Eurofins, IP1 HTRF), HEK293 cells; details: for 5-HT2B Rmax: % of Rmax of 5-HT; for EC50: duplicate determinations, read-out: 5-HT2B EC50; for Selectivity EC50 5-HT2B/EC50 5-HT2A: bounds are conservative estimates;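 as to 5-HT2B Rmax: agonist effect read as cellular IP1 production by HTRF using a europium cryptate anti-IP1 antibody donor and D2-labeled IP1 acceptor, eight compound concentrations in each cell line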;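 as to Selectivity EC50 5-HT2B/EC50 5-HT2A: agonist effect read as cellular IP1 production by HTRF using a europium cryptate anti-IP1 antibody donor and D2-labeled IP1 acceptor, eight compound concentrations in each cell line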
Protocol: (§1) The agonist properties of the compounds were characterized at HEK293 cell lines expressing the human 5-HT2A, human 5-HT2B or human 5-HT2C receptors in an IP assay essentially as previously described.^19 The testing was performed by Eurofins. In the assay, the agonist activity of the compound at the receptors is investigated by measuring its effect on IP1 production in the cell using the Homogeneous Time Resolved Fluorescence (HTRF) detection method. […] Following incubation, the cells were lysed, and the fluorescence acceptor (D2-labeled IP1) and fluorescence donor (anti-IP1 antibody labeled with europium cryptate) were added. […] The test compounds were characterized in eight different concentrations in duplicate at each of the three cell lines.

5-HT2C [4] = biological target: T1, 5-HT2C; experiment: IP assay (Eurofins, IP1 HTRF), HEK293 cells;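 as to 5-HT2B Rmax: agonist effect read as cellular IP1 production by HTRF using a europium cryptate anti-IP1 antibody donor and D2-labeled IP1 acceptor, eight compound concentrations in each cell line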;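 as to Selectivity EC50 5-HT2B/EC50 5-HT2A: agonist effect read as cellular IP1 production by HTRF using a europium cryptate anti-IP1 antibody donor and D2-labeled IP1 acceptor, eight compound concentrations in each cell line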
Protocol: as §1

[5] = agonist potency, n = 3-4, read-out: 5-HT2A EC50
[6] = agonist potency, n = 3-4, read-out: 5-HT2C EC50
[7] = agonist potency, n = 3-4, read-out: 5-HT2A [pEC50 ± S.E.M.] (converted)
[8] = agonist potency, n = 3-4, read-out: 5-HT2C [pEC50 ± S.E.M.] (converted)

5-HT2B, sequence (P41595 whole entry, looked up): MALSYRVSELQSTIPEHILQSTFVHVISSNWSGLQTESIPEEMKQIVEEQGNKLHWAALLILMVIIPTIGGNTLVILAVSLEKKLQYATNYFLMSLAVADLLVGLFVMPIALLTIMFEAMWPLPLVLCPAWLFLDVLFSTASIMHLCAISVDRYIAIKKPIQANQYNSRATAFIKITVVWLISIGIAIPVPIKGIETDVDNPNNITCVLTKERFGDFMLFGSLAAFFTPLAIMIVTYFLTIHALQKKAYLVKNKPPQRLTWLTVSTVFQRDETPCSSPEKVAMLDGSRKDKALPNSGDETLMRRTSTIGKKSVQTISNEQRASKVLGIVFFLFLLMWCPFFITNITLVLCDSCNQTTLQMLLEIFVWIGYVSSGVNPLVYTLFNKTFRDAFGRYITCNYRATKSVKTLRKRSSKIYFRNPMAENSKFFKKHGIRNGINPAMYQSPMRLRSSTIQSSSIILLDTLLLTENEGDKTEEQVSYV
T1 sequence (P28335 whole entry, looked up): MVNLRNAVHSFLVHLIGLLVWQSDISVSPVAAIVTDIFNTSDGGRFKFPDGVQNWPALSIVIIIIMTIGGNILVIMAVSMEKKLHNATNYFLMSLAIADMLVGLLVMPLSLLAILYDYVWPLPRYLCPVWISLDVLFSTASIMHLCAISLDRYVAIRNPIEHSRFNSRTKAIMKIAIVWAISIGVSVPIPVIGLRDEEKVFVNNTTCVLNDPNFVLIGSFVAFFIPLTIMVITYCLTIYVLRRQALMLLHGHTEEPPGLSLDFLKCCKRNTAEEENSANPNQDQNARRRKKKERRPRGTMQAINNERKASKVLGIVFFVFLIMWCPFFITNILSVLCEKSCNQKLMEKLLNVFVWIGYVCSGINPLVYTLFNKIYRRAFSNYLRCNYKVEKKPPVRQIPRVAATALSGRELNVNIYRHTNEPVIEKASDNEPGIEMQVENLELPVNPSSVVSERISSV

Row | Structure (SMILES) | 5-HT2C agonist activity (n.a./w.a.) (5-HT2C [1]) | 5-HT2A Rmax ± S.E.M (human 5-HT2A [2]) | EC50 (human 5-HT2A [2]; [5]) | 5-HT2A Rmax (human 5-HT2A [3]) | EC50 (human 5-HT2A [3]) | 5-HT2B Rmax (5-HT2B) | EC50 (5-HT2B) | 5-HT2C Rmax ± S.E.M (5-HT2C [1]) | EC50 (5-HT2C [1]; [6]) | Selectivity EC50 5-HT2C/EC50 5-HT2A (human 5-HT2A [2]) | Selectivity EC50 5-HT2B/EC50 5-HT2A (5-HT2B) | EC50 (human 5-HT2A [2]; [7]) | other results
1 | COc1cc(C(F)(F)F)ccc1[C@@H]1CCCNC1 [Compound 53, (S)-3-(2-methoxy-4-(trifluoromethyl)phenyl)piperidine hydrochloride] | w.a. | 68 ± 2% | 69 nM | 87% | 250 nM | 51% | 940 nM |  |  |  |  |  | 
2 | COc1cc(C(F)(F)F)c(OC)cc1[C@@H]1CNC[C@@H](C)C1.Cl (relative stereo) [Compound 36, cis or trans 3-(2,5-dimethoxy-4-(trifluoromethyl)phenyl)-5-methylpiperidine hydrochloride] |  | 68 ± 2% | 48 nM | 61% | 41 nM | 39% | 120 nM | 43 ± 6% | 400 nM | 8.2 | 2.9 |  | 5-HT2C [pEC50 ± S.E.M.] (5-HT2C [1]; agonist potency, n = 3-4): [6.40 ± 0.09]; 5-HT2A [pEC50 ± S.E.M.] (human 5-HT2A [2]; agonist potency, n = 3-4): [7.32 ± 0.10]
3 | COc1cc(C(F)(F)F)c(OC)cc1C1CCC(C)NC1 (single isomer, unassigned) [Compound 38, 5-(2,5-dimethoxy-4-(trifluoromethyl)phenyl)-2-methylpiperidine hydrochloride] | w.a. |  | 160 nM |  | 120 nM |  | 2200 nM |  |  |  |  | 155 nM | 5-HT2A Rmax ± S.E.M (human 5-HT2A [2]; hydrochloride): 38 ± 4%; Selectivity EC50 5-HT2C/EC50 5-HT2A (human 5-HT2A [2]; hydrochloride): >300^e; 5-HT2A Rmax (human 5-HT2A [3]; hydrochloride): 60%; 5-HT2B Rmax (5-HT2B; hydrochloride): 29%; Selectivity EC50 5-HT2B/EC50 5-HT2A (5-HT2B; hydrochloride): 18
4 | COc1cc(C(F)(F)F)c(OC)cc1C1CCCNC1C.Cl (stereo not drawn) [Compound 35, 3-(2,5-dimethoxy-4-(trifluoromethyl)phenyl)-2-methylpiperidine hydrochloride] |  | 75 ± 4% | 73 nM | 70% | 260 nM | 28% | 850 nM | 21 ± 2% | 3000 nM | 41 | 3.3 |  | EC50 (5-HT2C [1]; [8]): 2950 nM
5 | COc1cc([C@@H]2CCCNC2)c(OC2CC2)cc1C(F)(F)F [Compound 55, (S)-3-(2-cyclopropoxy-5-methoxy-4-(trifluoromethyl)phenyl)piperidine hydrochloride] | w.a. | 30 ± 5% | 1100 nM | 38% | 3000 nM |  | > 100000 nM |  |  | >50^e | >30^c | 1070 nM | 5-HT2B agonist activity (n.a.) (5-HT2B; up to 100 μM (Table 3)): n.a. [@ 100 μM]^a > (no agonist activity: the compound did not evoke significant responses at concentrations up to 100 μM)
6 | COc1cc([C@@H]2CCCNC2)c(OC)cc1I [Compound 14, (S)-3-(4-Iodo-2,5-dimethoxyphenyl)piperidine] |  |  |  | 72% | 45 nM | 57% | 170 nM |  | > 50000 nM |  |  | 37.2 nM | 
7 | COc1cc([C@@H]2CCCNC2)c(OC)cc1C#N [Compound 16, (S)-2,5-dimethoxy-4-(piperidin-3-yl)benzonitrile] |  |  | 270 nM | 77% | 980 nM | 45% | 5000 nM |  | > 50000 nM |  |  | 275 nM | 
8 | COc1cc([C@@H]2CCCNC2)c(OC)cc1SC.Cl [Compound 18, (S)-3-(2,5-dimethoxy-4-(methylthio)phenyl)piperidine hydrochloride] |  |  |  | 72% | 270 nM | 64% | 180 nM |  | 510 nM |  |  | 25.7 nM | 
9 | COc1cc(CCNCc2ccccc2O)c(OC)cc1C#N [Compound 25CN-NBOH, 4-(2-((2-hydroxybenzyl)amino)ethyl)-2,5-dimethoxybenzonitrile] |  |  |  |  |  |  |  |  |  |  |  |  | EC50 (5-HT2C [4]): 27 nM; 5-HT2C Rmax (%) (5-HT2C [4]; IP assay, % of Rmax of 5-HT): 84%
10 | CCCCc1cc(OC)c([C@@H]2CCCNC2)cc1OC [Compound 57, (S)-3-(4-butyl-2,5-dimethoxyphenyl)piperidine hydrochloride] | w.a. |  | 270 nM | 62% | 190 nM | 18% | 350 nM |  |  |  |  |  | 
11 | CCOc1cc(CC)c(OC)cc1[C@@H]1CCCNC1 [Compound 43, (S)-3-(2-ethoxy-4-ethyl-5-methoxyphenyl)piperidine] |  | 42 ± 6% | 140 nM | 45% | 670 nM | 11% | 1100 nM |  | > 50000 nM | >1,000^e | 1.6 | 138 nM | 
12 | CCOc1cc([C@@H]2CCCNC2)c(OC)cc1CC.Cl [Compound 34, (S)-3-(5-ethoxy-4-ethyl-2-methoxyphenyl)piperidine hydrochloride] |  | 88 ± 4% | 52 nM | 78% | 160 nM | 50% | 860 nM | 28 ± 4% | 840 nM | 16 | 5.4 | 51.3 nM | 
13 | CCSc1cc([C@@H]2CCCNC2)c(OC)cc1C(F)(F)F.Cl [Compound 47, (S)-3-(2-methoxy-5-(ethylthio)-4-(trifluoromethyl)phenyl)piperidine Hydrochloride] |  | 96 ± 3% |  | 95% | 130 nM | 49% | 620 nM | 43 ± 6% | 450 nM | 17 | 4.8 | 26.3 nM | EC50 (5-HT2C [1]; [8]): 457 nM
14 | CCOc1cc([C@@H]2CCCNC2)c(OC)cc1C(F)(F)F.Cl [Compound 20, (S)-3-(5-ethoxy-2-methoxy-4-(trifluoromethyl)phenyl)piperidine hydrochloride] |  | 95 ± 1% | 10 nM | 79% | 36 nM | 57% | 580 nM |  | 290 nM |  |  | 10.2 nM | 
15 | COc1cc([C@@H]2CCCNC2)c(OC)cc1Cl [Compound 10, (S)-3-(4-Chloro-2,5-dimethoxyphenyl)piperidine] | n.a. [@ 50 μM]^a (no agonist activity: the compound did not evoke significant responses at concentrations up to 50 μM) |  | 66 nM | 62% | 380 nM | 50% | 240 nM |  | > 50000 nM |  |  |  | 
16 | COc1cc(C(F)(F)F)c(OC)cc1C1CCC(C)NC1 (single isomer, unassigned) [Compound 37, 5-(2,5-dimethoxy-4-(trifluoromethyl)phenyl)-2-methylpiperidine hydrochloride] |  |  | 270 nM |  | 1500 nM |  | 620 nM | 33 ± 5% | 3400 nM |  |  | 263 nM | 5-HT2A Rmax ± S.E.M (human 5-HT2A [2]; hydrochloride): 90 ± 10%; Selectivity EC50 5-HT2C/EC50 5-HT2A (human 5-HT2A [2]; hydrochloride): 13; 5-HT2A Rmax (human 5-HT2A [3]; hydrochloride): 110%; 5-HT2B Rmax (5-HT2B; hydrochloride): 54%; Selectivity EC50 5-HT2B/EC50 5-HT2A (5-HT2B; hydrochloride): 0.4
